Source: patent US20230146455A1, “TREATMENT OF INFLAMMATORY DISEASES WITH PEPTIDES AND PHARMACEUTICAL COMPOSITIONS” (Yuyu Pharma, Inc., priority 2020, published 2023)
“And” between values parts separate entries of the source, which are not always exact repeats. Equal values may be shown once. Where a SMILES comes first, the peptide text is derived from it. [ ]: non-standard residue; d: D form. Hyp = O=C(O)[C@@H]1C[C@@H](O)CN1

Test system: Fas Ligand
Assay: Example 9 Luminex, LPS hPBMCs: Fas Ligand
Type: cell-based, human
Conditions: for Fas Ligand Concentration / Fas Ligand conc/live cell / MFI, bead Fas Ligand: single replicates
Description: Treatment Human PBMCs were pretreated with YY-101, YDE-011 and YDE-043 or reference compound; Xiidra® at various concentration (ranging from 1 nM to 100 uM) for 2 h before stimulation. An equal volume of 0.5% DMSO was used as a vehicle control. Then, the cells were treated with LPS at 5 ug/ml. The supernatants from treated cells were harvested at 24 h and placed in a 96 well for Luminex cytokine & chemokine profiling using a Luminex 200 multiplex assay (Luminex; R&D system, USA).
The main study arm with triplicate wells per group in a 24-well plate: • 1. Blank • 2. PBMC: 0.5% DMSO • 3. PBMC+LPS (5 ug/ml) • 4. PBMC+YY-101 100 uM • 5. PBMC+YY-101 10 uM • 6. PBMC+YY-101 1 uM • 7. PBMC+YY-101 0.1 uM • 8. PBMC+YY-101 0.01 uM • 9. PBMC+LPS (5 ug/ml)+Xiidra®100 uM • 10. PBMC+LPS (5 ug/ml)+Xiidra® 10 uM • 11. PBMC+LPS (5 ug/ml)+Xiidra® 1 uM • 12. PBMC+LPS (5 ug/ml)+Xiidra®0.1 uM • 13. PBMC+LPS (5 ug/ml)+Xiidra®0.01 uM • 14. PBMC+LPS (5 ug/ml)+Xiidra®0.001 uM • 15. PBMC+LPS (5 ug/ml)+YY-101 100 uM • 16. PBMC+LPS (5 ug/ml)+YY-101 10 uM • 17. PBMC+LPS (5 ug/ml)+YY-101 1 uM • 18. PBMC+LPS (5 ug/ml)+YY-101 0.1 uM • 19. PBMC+LPS (5 ug/ml)+YY-101 0.01 uM • 20. PBMC+LPS (5 ug/ml)+YY-101 0.001 uM • 21. PBMC+LPS (5 ug/ml)+YDE-011 100 uM • 22. PBMC+LPS (5 ug/ml)+YDE-011 10 uM • 23. PBMC+LPS (5 ug/ml)+YDE-011 1 uM • 24. PBMC+LPS (5 ug/ml)+YDE-011 0.1 uM • 25. PBMC+LPS (5 ug/ml)+YDE-011 0.01 uM • 26. PBMC+LPS (5 ug/ml)+YDE-011 0.001 uM • 27. PBMC+LPS (5 ug/ml)+YDE-043 100 uM • 28. PBMC+LPS (5 ug/ml)+YDE-043 10 uM • 29. PBMC+LPS (5 ug/ml)+YDE-043 1 uM • 30. PBMC+LPS (5 ug/ml)+YDE-043 0.1 uM • 31. PBMC+LPS (5 ug/ml)+YDE-043 0.01 uM • 32. PBMC+LPS (5 ug/ml)+YDE-043 0.001 uM
Multiplex assay was used to measure 30 cytokines and chemokines. The 1:2, 1:10 and 1:200 diluted cell supernatant and serial dilution of the standard were dispensed into a 96 well plate at 50 ul/well. Then, the pre-mixed cocktail of antibody-coated magnetic beads was dispensed at 50 ul/well and incubated at room temperature for 2 h in a horizontal orbital microplate shaker at 800±500 rpm. The beads were washed using a magnetic device to prevent loss. The biotin-antibody was dispensed in 50 ul of each well and incubated at room temperature for 1 h in a shaker at 800±500 rpm. After washing, streptavidin-PE was added at 50 ul/well and incubated at room temperature for 30 min in a shaker under the same conditions. Finally, after washing, wash buffer (100 ul/well) was added to the plate and incubated in a shaker for 2 min. The Luminex™ 200 setting were set according to the manufacturer's protocol. The data was calculated with a standard five-parameter logistic nonlinear regression analysis of the data (xPonent software 4.2, USA). The levels of cytokine/chemokine are normalized to the live cell counts (1×10^5 cells/mL) and presented as concentrations per mL (pg/mL or ng/mL).

[1] = PBMC + LPS(5 ug/ml) + test article 0.001 uM
[2] = PBMC + LPS(5 ug/ml) + test article 0.01 uM
[3] = PBMC + LPS(5 ug/ml) + test article 0.1 uM
[4] = PBMC + LPS(5 ug/ml) + test article 1 uM
[5] = PBMC + LPS(5 ug/ml) + test article 10 uM
[6] = PBMC + LPS(5 ug/ml) + test article 100 uM

CC(C)C[C@H](NC(=O)CNC(=O)[C@H](CC(C)C)NC(=O)[C@H](CCC(N)=O)NC(=O)CNC(=O)[C@@H]1C[C@@H](O)CN1)C(=O)N[C@@H](C)C(=O)NCC(=O)N1CCC[C@H]1C(=O)N[C@@H](CCCCN)C(=O)O [YDE-011] (H-[Hyp]GQLGLAGPK-OH)
Fas Ligand Concentration, Mean [1]: 16.8 pg/mL
Fas Ligand conc/live cell, Mean [1]: 3.2 pg/10^5
MFI, bead Fas Ligand, Mean [1]: 22.7
Fas Ligand Concentration [1]: 15.7 pg/mL and 18.4 pg/mL and 16.4 pg/mL
Fas Ligand conc/live cell [1]: 3.5 pg/10^5 and 3.2 pg/10^5 and 2.8 pg/10^5
MFI, bead Fas Ligand [1]: 21.0 and 25.0 and 22.0
Fas Ligand Concentration, Mean [2]: 15.5 pg/mL
Fas Ligand conc/live cell, Mean [2]: 2.7 pg/10^5
MFI, bead Fas Ligand, Mean [2]: 20.7
Fas Ligand Concentration [2]: 17.1 pg/mL and 13.7 pg/mL and 15.7 pg/mL
Fas Ligand conc/live cell [2]: 2.7 pg/10^5 and 2.2 pg/10^5 and 3.1 pg/10^5
MFI, bead Fas Ligand [2]: 23.0 and 18.0 and 21.0
Fas Ligand Concentration, Mean [3]: 17.3 pg/mL
Fas Ligand conc/live cell, Mean [3]: 3.0 pg/10^5
MFI, bead Fas Ligand, Mean [3]: 23.3
Fas Ligand Concentration [3]: 19.1 pg/mL and 17.7 pg/mL and 15.0 pg/mL
Fas Ligand conc/live cell [3]: 2.9 pg/10^5 and 3.5 pg/10^5 and 2.6 pg/10^5
MFI, bead Fas Ligand [3]: 26.0 and 24.0 and 20.0
Fas Ligand Concentration, Mean [4]: 15.9 pg/mL
Fas Ligand conc/live cell, Mean [4]: 3.2 pg/10^5
MFI, bead Fas Ligand, Mean [4]: 21.3
Fas Ligand Concentration [4]: 17.4 pg/mL and 15.4 pg/mL and 15.0 pg/mL
Fas Ligand conc/live cell [4]: 3.2 pg/10^5 (2×) and 3.1 pg/10^5
MFI, bead Fas Ligand [4]: 23.5 and 20.5 and 20.0
Fas Ligand Concentration, Mean [5]: 17.3 pg/mL
Fas Ligand conc/live cell, Mean [5]: 3.3 pg/10^5
MFI, bead Fas Ligand, Mean [5]: 23.3
Fas Ligand Concentration [5]: 19.7 pg/mL and 17.7 pg/mL and 14.4 pg/mL
Fas Ligand conc/live cell [5]: 3.7 pg/10^5 and 3.1 pg/10^5 (2×)
MFI, bead Fas Ligand [5]: 27.0 and 24.0 and 19.0
Fas Ligand Concentration, Mean [6]: 13.3 pg/mL
Fas Ligand conc/live cell, Mean [6]: 2.2 pg/10^5
MFI, bead Fas Ligand, Mean [6]: 17.3
Fas Ligand Concentration [6]: 11.7 pg/mL and 13.1 pg/mL and 15.0 pg/mL
Fas Ligand conc/live cell [6]: 1.9 pg/10^5 and 2.1 pg/10^5 and 2.5 pg/10^5
MFI, bead Fas Ligand [6]: 15.0 and 17.0 and 20.0

CC(C)C[C@H](NC(=O)[C@H](CCC(N)=O)NC(=O)CNC(=O)[C@@H]1C[C@@H](O)CN1)C(=O)NCC(=O)O [YDE-043] (H-[Hyp]GQLG-OH; N-terminus and C-terminus assumed)
Fas Ligand Concentration, Mean [1]: 16.8 pg/mL
Fas Ligand conc/live cell, Mean [1]: 3.4 pg/10^5
MFI, bead Fas Ligand, Mean [1]: 22.7
Fas Ligand Concentration [1]: 17.1 pg/mL and 20.4 pg/mL and 13.1 pg/mL
Fas Ligand conc/live cell [1]: 3.9 pg/10^5 and 3.4 pg/10^5 and 2.8 pg/10^5
MFI, bead Fas Ligand [1]: 23.0 and 28.0 and 17.0
Fas Ligand Concentration, Mean [2]: 21.9 pg/mL
Fas Ligand conc/live cell, Mean [2]: 4.3 pg/10^5
MFI, bead Fas Ligand, Mean [2]: 30.2
Fas Ligand Concentration [2]: 19.1 pg/mL and 15.7 pg/mL and 31.0 pg/mL
Fas Ligand conc/live cell [2]: 4.2 pg/10^5 and 2.4 pg/10^5 and 6.2 pg/10^5
MFI, bead Fas Ligand [2]: 26.0 and 21.0 and 43.5
Fas Ligand Concentration, Mean [3]: 13.2 pg/mL
Fas Ligand conc/live cell, Mean [3]: 2.5 pg/10^5
MFI, bead Fas Ligand, Mean [3]: 17.2
Fas Ligand Concentration [3]: 14.4 pg/mL and 12.7 pg/mL and 12.4 pg/mL
Fas Ligand conc/live cell [3]: 2.9 pg/10^5 and 2.3 pg/10^5 and 2.2 pg/10^5
MFI, bead Fas Ligand [3]: 19.0 and 16.5 and 16.0
Fas Ligand Concentration, Mean [4]: 16.6 pg/mL
Fas Ligand conc/live cell, Mean [4]: 3.2 pg/10^5
MFI, bead Fas Ligand, Mean [4]: 22.3
Fas Ligand Concentration [4]: 13.7 pg/mL and 15.7 pg/mL and 20.4 pg/mL
Fas Ligand conc/live cell [4]: 2.4 pg/10^5 and 3.3 pg/10^5 and 3.9 pg/10^5
MFI, bead Fas Ligand [4]: 18.0 and 21.0 and 28.0
Fas Ligand Concentration, Mean [5]: 16.4 pg/mL
Fas Ligand conc/live cell, Mean [5]: 3.0 pg/10^5
MFI, bead Fas Ligand, Mean [5]: 22.0
Fas Ligand Concentration [5]: 16.4 pg/mL and 17.1 pg/mL and 15.7 pg/mL
Fas Ligand conc/live cell [5]: 3.2 pg/10^5 (2×) and 2.8 pg/10^5
MFI, bead Fas Ligand [5]: 22.0 and 23.0 and 21.0
Fas Ligand Concentration, Mean [6]: 13.2 pg/mL
Fas Ligand conc/live cell, Mean [6]: 2.1 pg/10^5
MFI, bead Fas Ligand, Mean [6]: 17.3
Fas Ligand Concentration [6]: 15.0 pg/mL and 11.4 pg/mL
Fas Ligand conc/live cell [6]: 2.4 pg/10^5 and 1.8 pg/10^5
MFI, bead Fas Ligand [6]: 20.0 and 14.5
